Test results: ChEMBL document CHEMBL1140028, “Heterocyclic alpha-helix mimetics for targeting protein-protein interactions” (Bioorg Med Chem Lett, 2007)
Active and inactive are the calls of the source. No cut-off for these calls is given here.

test system: Bcl-XL (Homo sapiens); assay: Binding affinity to Bcl-XL by fluorescence polarization assay

Activity	SMILES
Active	CC(C)c1coc(-c2cc(CC3CCCCC3)c(-c3nc(C(C)C)co3)nn2)n1
Active	CC(C)Cc1cc(C(=O)N2CCC[C@@H](OCc3ccccc3)C2)nnc1-c1nc(C(C)C)co1
Active	CCC(C)C1CN(C(=O)c2cc(Cc3ccccc3)c(-c3nc(CC(C)C)co3)nn2)CCN1C (centres undefined)
Active	CC(C)Cc1cc(-c2nc(C(C)C)co2)nnc1-c1nc(C(C)C)co1
